Experimental findings from the supplement of paper PMC4862054 are described below.

One assay relates to CAL-120. In words: drug sensitivity score (DSS), CellTiter-Glo (DSS (AUC-based score)); higher = stronger drug effect (viability inhibition or cytotoxicity); extreme values may be limits of the assay. The following applies: incubation time: 72 h. Put shortly:
(§1)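 Each compound occupied 5 concentrations in 10-fold steps over its own 10,000-fold range in 384-well plates, into which breast cancer cell lines were seeded as 20 µl suspension. Following 72 h of incubation, CellTox Green fluorescence (485/520 nm) was measured, and CellTiter-Glo luminescence was measured after 10 min at room temperature. Plates were individually normalised to 0.1 % DMSO and a positive kill control. From the area under the fitted dose-response curve, a drug sensitivity score was calculated.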

In the next assay the test system is BT-474. The assay is described as above. The following applies: incubation time: 72 h. Put shortly:
as §1

In another assay the test system is BT-549. The description is as above. The following applies: incubation time: 72 h. In outline:
as §1

A further assay has as its system HCC1599. Described as above. The following applies: incubation time: 72 h. Put shortly: as §1
Another assay concerns MDA-MB-436. The assay is described as above. The settings on record: incubation time: 72 h. In outline:
as §1

Another assay has as its system MDA-MB-453. Described as above. The settings on record: incubation time: 72 h. Put shortly: as §1
A further assay relates to MCF-10A. The description is as above. The settings on record: incubation time: 72 h. Put shortly:
as §1

In the next assay the test system is MDA-MB-231. Described as above. The following applies: incubation time: 72 h. Put shortly:
as §1

In another assay the test system is Hs578T. The description is as above. The following applies: incubation time: 72 h. Put shortly: as §1
For a further assay, the system named is HCC1143. The assay is described as above. The following applies: incubation time: 72 h. Put shortly:
as §1

The subject of assay [1] is CAL-51. The description is as above. The following applies: incubation time: 72 h. In outline: as §1
Assay [2] has as its system HDQ-P1. The description is as above. The following applies: incubation time: 72 h. In outline: as §1
The subject of another assay is HCC1937. The description is as above. The settings on record: incubation time: 72 h. Put shortly: as §1
The next assay relates to SK-BR-3. The assay is described as above. The following applies: incubation time: 72 h. Put shortly:
as §1

For assay [3], the system named is CAL-148. The assay is described as above. The settings on record: incubation time: 72 h. Put shortly: as §1
In the next assay the test system is MFM-223. The assay is described as above. The settings on record: incubation time: 72 h. Put shortly:
as §1

Assay [4] concerns DU-4475. The description is as above. The following applies: incubation time: 72 h. In outline:
as §1

The next assay relates to MDA-MB-468. The description is as above. The settings on record: incubation time: 72 h. Put shortly:
as §1

Assay [5] has as its system CAL-85-1. The assay is described as above. The following applies: incubation time: 72 h. In outline:
as §1

Assay [6] relates to CAL-51. In words: normalised viability (% of control), CellTiter-Blue; higher = more viable cells (about 100 = DMSO control). The settings on record: 1000 nM; incubation time: 72 h. The protocol: (§2)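 DSRT, CellTiter-Blue viability, 72 h incubation. Signal is normalised to DMSO and benzethonium chloride controls. Value is the normalised response at dose 7.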
(In general: The colour change of resazurin is a common sign of viable cells or microbes.)

Assay [7] relates to HDQ-P1. Described as above. The following applies: 1000 nM; incubation time: 72 h. The procedure:
as §2

Assay [8] relates to CAL-148. Described as above. The following applies: 1000 nM; incubation time: 72 h. The protocol: as §2
Assay [9] relates to DU-4475. Described as above. The settings on record: 1000 nM; incubation time: 72 h. The procedure: as §2
In assay [10] the test system is CAL-85-1. The assay is described as above. The settings on record: 1000 nM; incubation time: 72 h. The procedure: as §2
The test system of assay [11] is HDQ-P1. Put plainly: normalised viability (% of control), CellTiter-Blue; higher = more viable cells (about 100 = DMSO control). The settings on record: incubation time: 72 h. In outline:
(§3)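 Normalised viability is given for a single listed concentration of the series. In 384-well plates, breast cancer cell lines were incubated 72 h with compound, then read with CellTiter-Blue (2 h, 37 °C) at 560/590 nm. Per-plate scaling set vehicle to 100 and a positive kill control to 0, with Z'-factor quality control.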

The subject of assay [12] is CAL-148. The assay is described as above. The following applies: incubation time: 72 h. Put shortly: as §3

With `C=CC(=O)N1CCC[C@@H](n2nc(-c3ccc(Oc4ccccc4)cc3)c3c(N)ncnc32)C1` [Ibrutinib], the drug sensitivity score in the assay on CAL-120 was 0; in the assay with BT-474, 0; in the assay on BT-549 it was 0; with HCC1599, 0; in the assay with MDA-MB-436 it was 0; with MDA-MB-453, 5.93. In addition, the drug sensitivity score stood at 4.67 in the assay with MCF-10A; 0 in the assay on MDA-MB-231; 0 in the assay with Hs578T; 0 in the assay on HCC1143; 2.76 with CAL-51 [1]; 3.29 in the assay on HDQ-P1 [2]. Also, the drug sensitivity score was determined as 0 in the assay with HCC1937; 17.4 in the assay with SK-BR-3; 0 in the assay on CAL-148 [3]; 0 in the assay on MFM-223; 0 in the assay with DU-4475 [4]; 0.811 in the assay with MDA-MB-468. In the assay with CAL-85-1 [5], this molecule came in with a drug sensitivity score of 2.66.

For the molecule `C=CCc1cccc(/C=N/NC(=O)CN2CCN(Cc3ccccc3)CC2)c1O` [PAC-1], the drug sensitivity score was determined as 3.26 in the assay with CAL-120; 2.94 with BT-474; 7.1 with BT-549; 1.71 in the assay on HCC1599; 5.19 in the assay with MDA-MB-436; 5.01 with MDA-MB-453. Also, the drug sensitivity score in the assay on MCF-10A was 0; in the assay with MDA-MB-231, 2.27; in the assay on Hs578T it was 0; with HCC1143, 1.38; in the assay with CAL-51 [1], 8.79; with HDQ-P1 [2], 1.79. The drug sensitivity score turned out to be 3.44 with HCC1937; 3.2 in the assay with SK-BR-3; 2.16 in the assay on CAL-148 [3]; 1.4 in the assay on MFM-223; 4.02 in the assay on DU-4475 [4]; 3.77 with MDA-MB-468. Besides, the drug sensitivity score in the assay with CAL-85-1 [5] was determined as 3.

In the case of `CC[C@H](C)C(=O)O[C@H]1C[C@H](O)C=C2C=C[C@H](C)[C@H](CC[C@@H](O)C[C@@H](O)CC(=O)O)[C@H]21` [Pravastatin], the drug sensitivity score in the assay with CAL-120 was determined as 2.92; with BT-474, 3.69; with BT-549 it was 2.77; in the assay with HCC1599, 6.85; in the assay with MDA-MB-436, 26.2; in the assay on MDA-MB-453, 0. Besides, the drug sensitivity score with MCF-10A stood at 0; with MDA-MB-231, 0; in the assay on Hs578T, 0; in the assay with HCC1143 it was 2.94; with CAL-51 [1] it was 14.4; in the assay with HDQ-P1 [2], 1.68. The drug sensitivity score in the assay on HCC1937 was determined as 3.68; in the assay on SK-BR-3 it was 4.87; in the assay on CAL-148 [3], 3.75; in the assay on MFM-223, 2.84; in the assay with DU-4475 [4], 4.02; in the assay on MDA-MB-468 it was 3.34. The drug sensitivity score in the assay on CAL-85-1 [5] was determined as 1.96.

For the molecule `Cc1cnc(NC(=O)Nc2cc(Br)c(C)cc2OC[C@@H]2CNCCO2)cn1` [Rabusertib], the drug sensitivity score in the assay on CAL-120 is 0; in the assay on BT-474, 0; in the assay with BT-549 it was 0; with HCC1599, 1.93; in the assay with MDA-MB-436, 0; in the assay on MDA-MB-453, 2.1. The drug sensitivity score in the assay with MCF-10A worked out at 0; in the assay with MDA-MB-231, 0; in the assay with Hs578T, 1.2; in the assay with HCC1143, 0; in the assay on CAL-51 [1], 0; with HDQ-P1 [2], 0. Besides, the drug sensitivity score in the assay on HCC1937 amounted to 0; in the assay with SK-BR-3, 1.38; in the assay on CAL-148 [3] it was 0; in the assay with MFM-223, 0; in the assay with DU-4475 [4] it was 0; in the assay with MDA-MB-468, 0. The molecule also registered a drug sensitivity score with CAL-85-1 [5] of 0.115.

On to `CNC(=O)c1cc(Oc2ccc(NC(=O)Nc3cc(C(C)(C)C)nn3-c3ccc4ncccc4c3)c(F)c2)ccn1` [Rebastinib], for which the drug sensitivity score with CAL-120 stood at 2.56; in the assay with BT-474, 0.877; in the assay on BT-549, 0; in the assay on HCC1599, 0; in the assay with MDA-MB-436, 0; in the assay with MDA-MB-453, 0. The drug sensitivity score with MCF-10A, in the assay with MDA-MB-231, in the assay on Hs578T, in the assay with HCC1143, with CAL-51 [1] and in the assay on HDQ-P1 [2] was 0 throughout. For the same molecule, the drug sensitivity score with HCC1937 stood at 0; in the assay on SK-BR-3, 0; in the assay on CAL-148 [3], 0; with MFM-223 it was 6.56; in the assay on DU-4475 [4], 0; in the assay on MDA-MB-468, 0. The molecule further came in with a drug sensitivity score with CAL-85-1 [5] of 0.

Take `CC(=O)Nc1cccc(-n2c(=O)n(C3CC3)c(=O)c3c(Nc4ccc(I)cc4F)n(C)c(=O)c(C)c32)c1` [Trametinib]: the drug sensitivity score turned out to be 5.16 with CAL-120; 5.25 in the assay on BT-474; 0 with BT-549; 0 in the assay on HCC1599; 0.966 in the assay with MDA-MB-436; 0 in the assay on MDA-MB-453. Further, the drug sensitivity score in the assay on MCF-10A is 20.3; in the assay with MDA-MB-231 it was 5.25; in the assay with Hs578T, 2.9; with HCC1143, 0; in the assay on CAL-51 [1], 0; in the assay on HDQ-P1 [2], 10.8. In addition, the drug sensitivity score in the assay on HCC1937 came to 3.49; in the assay on SK-BR-3, 0; in the assay on CAL-148 [3] it was 0; with MFM-223, 1.88; with DU-4475 [4], 27.2; with MDA-MB-468, 1.05. This molecule gave a drug sensitivity score in the assay with CAL-85-1 [5] of 6.58.

For `C1CN1c1nc(N2CC2)nc(N2CC2)n1` [Triethylenemelamine], the normalised viability with CAL-51 [6] was found to be 104%; in the assay on HDQ-P1 [7], 102%; in the assay with CAL-148 [8], 110%; in the assay with DU-4475 [9], 102%; with CAL-85-1 [10], 98.4%; with HDQ-P1 [11] (3 nM), 110%. Also, the normalised viability was determined as 94.3% in the assay with HDQ-P1 [11] (30 nM); 118% in the assay with HDQ-P1 [11] (100 nM); 101% with CAL-148 [12] (3 nM); 105% in the assay with CAL-148 [12] (30 nM); 101% in the assay on CAL-148 [12] (100 nM).

Turning to `COc1cc2c(NC3CCN(C(C)C)CC3)nc(C3CCCCC3)nc2cc1OCCCN1CCCC1` [UNC0638], the drug sensitivity score in the assay on CAL-120 turned out to be 6.05; in the assay on BT-474 it was 6.49; in the assay with BT-549, 6.76; in the assay on HCC1599, 2.99; with MDA-MB-436, 6.5; in the assay on MDA-MB-453, 7.02. Also, the drug sensitivity score in the assay on MCF-10A turned out to be 7.1; with MDA-MB-231, 6.74; in the assay with Hs578T, 0; with HCC1143, 3.85; in the assay on CAL-51 [1], 7.71; in the assay with HDQ-P1 [2], 3.3. Moreover, the drug sensitivity score with HCC1937 worked out at 5.15; with SK-BR-3 it was 6.09; in the assay with CAL-148 [3], 5.21; in the assay with MFM-223, 6.13; in the assay on DU-4475 [4], 0.314; in the assay with MDA-MB-468 it was 8.02. The drug sensitivity score in the assay on CAL-85-1 [5] is 5.07.
